Laboratory results from patent publication US20160067272A1, “METHODS FOR TREATING IMMUNE DISEASES” (priority 2013, published 2016).

Tests used:
EAE in C57BL/6 mice = experiment: EAE mouse model (behavioral score, splenic CD4+ T cells, spinal cord histology); format: in vivo
Experimental: Thus, the inventors used the experimental autoimmune encephalomyelitis (EAE) mouse model to study the impact of NAD^+, in vivo, on IL-10, Th1, Th17 and Treg cells in vivo. […] Next, the mechanisms by which NAD^+ protected from EAE in vivo were investigated, in particular its impact on IL-10 cytokine, Th1, Th17 and Tregs. Spleens were isolated from mice treated with NAD^+ or with a placebo solution 15 days after MOG immunization and CD4^+ T cell cytokine expression profile was analyzed by flow cytometry.
To assess the clinical efficacy of NAD^+ as a potential robust therapeutic, a group of mice that developed severe clinical symptoms of EAE (e.g., bilateral hindlimb paresis) was subjected to a daily NAD^+ treatment 15 days after MOG immunization.
Thus, the mechanism of how NAD^− treatment was able to reverse EAE progression was investigated. A previous study reported that nicotinamide (Nam) an NAD biosynthesis precursor can protect from myelin degradation and axon degeneration^43. The results described herein indicate that NAD^+ administered after the disease onset was able to reverse the progression of EAE. Thus, the inventors assessed whether NAD^+ was able to reverse the clinical symptoms of EAE by protecting axon from degeneration and whether NAD^+ had the capacity to promote myelin regeneration. […] Moreover, demyelination and axon loss were assessed with antibodies to myelin basic protein (MBP/SMI-9) and neurofilament (NF200), respectively, in all three groups (FIG. 5A-5F). Consistent with H&E and luxol blue findings, a significant reduction in both MBP staining depicting demyelination and axon loss evidenced by reduced NF 200 staining was very prominent in the group of mice treated with a placebo solution (FIG. 5A and 5D) when compared to the daily NAD^| treated group (FIG. 5B and 5E) and with mice treated with NAD+ after develop hindlimb paralysis (15 days after MOG immunization) (FIG. 5C and 5F).
EAE was induced in 10-week-old C57BL/6 mice using Hooke Labs EAE induction kit (EK-2110) according to manufacturer's instructions. […] For NAD^+ treatment mice received a daily intraperitoneal injection (60 mg in 100 μl in PBS) or a placebo solution (100 μl of PBS) at the same day than MOG immunization. Mice were sacrificed at day 18 and single cell suspension was obtained from spleens for flow cytometry analysis. To test whether NAD^+ was able to reverse the development of EAE, another group of mice was treated daily (for a period of 10 days) with NAD^+ (60 mg/mouse) or a placebo solution 15 days after MOG immunization when mice were scored 3 with a bilateral hindlimb paresis. EAE disease progression was monitored. For Tph-1 or CA3 inhibition, mice received daily intraperitoneal injections (simultaneous to NAD^−) of p-Chlorophenylalanine (1 ml of a 10 mM solution stock, catalog number 0938, Tocris Bioscience) or N-[[[(1S)-1-Carboxy-3-methylbutyl]amino]carbonyl]-L-glutamic acid (100 μl of a 100 mM solution stock, ZJ 43 catalog number 2675,Tocris Bioscience), respectively.

[1] = test system: Fully MHC-mismatched tail skin allografts in mice; experiment: Skin transplantation model; format: in vivo, mouse
From the text: More importantly, in transplantation nTregs promote allograft survival while Th17 cells enhance allograft rejection^44-45. Thus, to study, in vivo, the impact of NAD^+ on nTregs and Th17 cells a transplant mouse model was used. Fully MHC-mismatched C57BL/6 (H2^b) tail skin allografts were transplanted onto DBA/2 (H2^d) mice that received daily intraperitoneally a solution containing NAD^+ or a placebo solution (PBS) and graft survival was monitored. […] Therefore, NAD^+ treatment was expected to promote allograft rejection. […] Recipient mice were evaluated by day 8 and the frequency of nTregs CD4^+CD25^+Foxp3^+ and CD4^+IL17-A^+ cells was assessed (FIG. 14B). […] Next, mechanisms by which NAD^+ could promote nTreg conversion into Th17 cells and allograft survival at the same time, e.g., two paradoxes, were assessed. Strikingly, when compared to the control group, more than 60% of CD4^+ T cells of NAD^+ treated mice were IL-10^+ producing cells (FIG. 14B). It is known that IL-10 is a robust immunosuppressive cytokine^46. Therefore, it was tested whether the allograft survival observed in recipient mice treated with NAD^| was the results of a systemic increase of IL-10 production. Thus, WT and IL-10^−/− mice (on a C57BL6/ background) received a BDA skin transplant and were treated with NAD^|.
Full-thickness tail skin grafts (˜1 cm^2) were procured from C57BL/6 mice and engrafted onto the dorsolateral thoracic wall of DBA/2 recipient mice using interrupted 5-0 Vicryl sutures. NAD^+ (100 μl of a solution containing 10 mg in PBS), or PBS (100 μl) were injected intraperitoneally and grafts were covered with gauze and adhesive bandage for 5 days. Graft survival was then monitored daily and rejection was defined as graft necrosis of 100%. Two investigators blinded for the particular experimental groups assessed graft survival independently. Eight days after transplantation, single-cell leukocyte suspensions were obtained from spleens procured from recipient mice to perform re-stimulation (with PMA and Ionomycin for 2hrs) and staining for surface and intracellular antigens as described above.

[2] = test system: C57Bl/6 mice, OVA-induced allergy; experiment: Allergic mouse model (ovalbumin); format: in vivo
Experimental: FIGS. 20A-20C depicts data from an experiment where allergy was induced in mice (C57B1/6) with intraperitoneal injections of OVA at day 1, 7, 14 and 21. Mice were treated with OVA or a placebo solution (PBS). […] NAD+ can therefore be used in chronic inflammation and allergy such as chronic obstructive pulmonary disease and atopic disorders.
The top panel of the figure is a schematic depicting the experimental protocol.
It is understood in a clinical setting that immunosuppressants are unable to specifically target activated/memory CD4+ T cells. Thus, the inventors next investigated the specificity of NAD+ using an allergic mouse model consisting of several intraperitoneal (i.p.) injections of ovalbumin (OVA) with Alumn. As a control, a group of mice received a placebo solution (PBS). In addition, to assess the specific effect of NAD+ on CD4+CD44^highCD62L^high activated/memory T cells, a group of mice received OVA followed by NAD+ injection.

[3] = MOG-immunized mice, daily i.p. NAD+ from day of immunization
[4] = daily NAD+ and NAD+ from 15 days after MOG immunization
[5] = spleen, EAE mice, daily NAD+ vs placebo, flow cytometry
[6] = recipient spleen, day 8, NAD+ vs placebo
[7] = OVA i.p. day 1, 7, 14 and 21, with NAD+

NC(=O)c1ccc[n+]([C@@H]2O[C@H](COP(=O)([O-])OP(=O)(O)OC[C@H]3O[C@@H](n4cnc5c(N)ncnc54)[C@H](O)[C@@H]3O)[C@@H](O)[C@H]2O)c1 [NAD+, nicotinamide adenine dinucleotide]
spinal cord inflammatory infiltrate, myelin loss and axonal injury (LFB and H&E stainings) (EAE in C57BL/6 mice; EAE mice treated daily with NAD+): remained free of inflammatory infiltrate, myelin loss, and axonal injury | EAE (behavioral score) (EAE in C57BL/6 mice; [3]): protected against EAE | paralysis (EAE in C57BL/6 mice; [3]): no sign of paralysis | spinal cord inflammatory infiltrate, myelin loss and axonal injury (LFB and H&E stainings) (EAE in C57BL/6 mice; NAD+ started 15 days after MOG immunization (after hindlimb paralysis)): did not show inflammatory infiltrate, myelin loss, and axonal injury | myelination positive area (MBP), spinal cord (EAE in C57BL/6 mice; [4]): significant protection and recovery | neurofilament positive area (NF200), spinal cord (EAE in C57BL/6 mice; [4]): significant protection and recovery | time of treatment until bilateral hindlimb paresis abolished (EAE in C57BL/6 mice; daily NAD+ started 15 days after MOG immunization): ≤ 10 days | progression of EAE (EAE in C57BL/6 mice; daily NAD+ started 15 days after MOG immunization (bilateral hindlimb paresis), vs placebo): reversed the progression of the disease | development of EAE (EAE in C57BL/6 mice; daily NAD+, after 25 days): did not develop EAE | systemic IL-10 cytokine production by CD4+IFNγ+ cells (EAE in C57BL/6 mice; spleen, EAE mice, daily NAD+ vs control group, flow cytometry): dramatically enhanced | IFNγ production by CD4+ T cells (EAE in C57BL/6 mice; [5]): promoted | Th17 response (EAE in C57BL/6 mice; [5]): promoted a robust Th17 response | number of CD4+CD25+Foxp3+ cells (EAE in C57BL/6 mice; [5]): reduced | visual sign of rejection ([1]; 13 days after transplantation, daily NAD+): no visual sign of rejection | allografts survived more than 18 days ([1]; C57BL/6 skin onto DBA/2 mice, daily i.p. NAD+): 66% | skin allograft survival ([1]; C57BL/6 skin onto DBA/2 mice, daily i.p. NAD+ vs control group): dramatic allograft survival | skin allograft survival in IL-10−/− mice ([1]; DBA skin onto IL-10−/− mice (C57BL/6 background), NAD+ treatment): abolished the allograft survival | frequencies of CD4+IL-17A+ cells [1, 6]: increased frequencies | frequency of CD4+CD25+Foxp3+ nTregs [1, 6]: reduced frequency | CD4+CD44highCD62Lhigh activated/memory T cell frequency ([2]; OVA followed by NAD+ injection, after 21 days): targets specifically | frequencies of effector T cells induced by the antigen [2, 7]: reduces specifically | frequencies of mature B cells induced by the antigen [2, 7]: reduces specifically
